Test results as given in ChEMBL document CHEMBL1157910, “Structural requirement(s) of N-phenylthioureas and benzaldehyde thiosemicarbazones as inhibitors of melanogenesis in melanoma B 16 cells” (Bioorg Med Chem Lett, 2010).

How the values were obtained:
B16 [1] = test: Inhibition of melanogenesis in mouse B16 cells; assay type: functional, cell-based
B16 [2] = test: Inhibition of melanogenesis in mouse B16 cells at 10 uM; assay type: functional
B16 [3] = test: Selectivity ratio for inhibition of melanogenesis in mouse B16 cell of compound to N-phenylthiourea; assay type: functional

IC50 (B16 [1])	Compound	inhibition at 10 µM (B16 [2])	Ratio (B16 [3])
> 10 µM	CCc1ccccc1NC(N)=S	< 10%	
> 10 µM	NC(=S)Nc1ccccc1CO	< 10%	
> 10 µM	NC(=S)NCc1ccccc1	< 10%	
> 10 µM	NC(=S)NCCc1ccccc1	< 10%	
> 10 µM	NC(=S)NCCCc1ccccc1	< 10%	
> 10 µM	NC(=S)NCCCCc1ccccc1	< 10%	
5.5 µM	Cc1ccc(NC(N)=S)cc1	83%	
4.9 µM	CCc1ccc(NC(N)=S)cc1	88%	
3.7 µM	CC(C)(C)c1ccc(NC(N)=S)cc1	95%	
4 µM	NC(=S)Nc1ccc(Cl)cc1	84%	
6.3 µM	NC(=S)Nc1ccc(O)cc1	70%	
5.6 µM	COc1ccc(NC(N)=S)cc1	80%	
> 10 µM	CC(C)(C)c1ccccc1NC(N)=S	< 10%	
> 10 µM	COc1ccccc1NC(N)=S	< 10%	
6.8 µM	Cc1ccc(/C=N/NC(N)=S)cc1	64%	
3.4 µM	CCc1ccc(/C=N/NC(N)=S)cc1	100%	2
> 10 µM	NC(=S)N/N=C/c1ccccc1 [PHENYLTHIOSEMICARBAZONE]	< 10%	

Compound	IC50 (B16 [1])	inhibition at 10 µM (B16 [2])	Ratio (B16 [3])
Cc1cccc(NC(N)=S)c1	5 µM	78%	
Cc1ccccc1NC(N)=S	> 10 µM	< 10%	
NC(=S)Nc1ccccc1 [PHENYLTHIOUREA]	5.4 µM	84%	
